Target: T1, F508del (Homo sapiens, UniProt P13569, DEL508-508)
T1 construct: expressed in transfected cells
Assay: Protocol 2: FRET membrane potential optical assay (VIPR), identification of correction compounds
Type: cell-based
Conditions: F508del CFTR modulator activity; compounds of Table 1; read-out: EC30
In short: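 NIH3T3 mouse fibroblasts stably expressing F508del were treated with test compound for 16 hrs at 37° C. in serum-free medium; 27° C. incubation served as positive control. F508del was activated with 10 μM forskolin plus 20 μM genistein in Cl^−-free medium, and Cl^− efflux-driven depolarization was read by DiSBAC2(3)/CC2-DMPE FRET.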

T1 sequence (P13569 with tags, fused parts or gaps DEL508-508): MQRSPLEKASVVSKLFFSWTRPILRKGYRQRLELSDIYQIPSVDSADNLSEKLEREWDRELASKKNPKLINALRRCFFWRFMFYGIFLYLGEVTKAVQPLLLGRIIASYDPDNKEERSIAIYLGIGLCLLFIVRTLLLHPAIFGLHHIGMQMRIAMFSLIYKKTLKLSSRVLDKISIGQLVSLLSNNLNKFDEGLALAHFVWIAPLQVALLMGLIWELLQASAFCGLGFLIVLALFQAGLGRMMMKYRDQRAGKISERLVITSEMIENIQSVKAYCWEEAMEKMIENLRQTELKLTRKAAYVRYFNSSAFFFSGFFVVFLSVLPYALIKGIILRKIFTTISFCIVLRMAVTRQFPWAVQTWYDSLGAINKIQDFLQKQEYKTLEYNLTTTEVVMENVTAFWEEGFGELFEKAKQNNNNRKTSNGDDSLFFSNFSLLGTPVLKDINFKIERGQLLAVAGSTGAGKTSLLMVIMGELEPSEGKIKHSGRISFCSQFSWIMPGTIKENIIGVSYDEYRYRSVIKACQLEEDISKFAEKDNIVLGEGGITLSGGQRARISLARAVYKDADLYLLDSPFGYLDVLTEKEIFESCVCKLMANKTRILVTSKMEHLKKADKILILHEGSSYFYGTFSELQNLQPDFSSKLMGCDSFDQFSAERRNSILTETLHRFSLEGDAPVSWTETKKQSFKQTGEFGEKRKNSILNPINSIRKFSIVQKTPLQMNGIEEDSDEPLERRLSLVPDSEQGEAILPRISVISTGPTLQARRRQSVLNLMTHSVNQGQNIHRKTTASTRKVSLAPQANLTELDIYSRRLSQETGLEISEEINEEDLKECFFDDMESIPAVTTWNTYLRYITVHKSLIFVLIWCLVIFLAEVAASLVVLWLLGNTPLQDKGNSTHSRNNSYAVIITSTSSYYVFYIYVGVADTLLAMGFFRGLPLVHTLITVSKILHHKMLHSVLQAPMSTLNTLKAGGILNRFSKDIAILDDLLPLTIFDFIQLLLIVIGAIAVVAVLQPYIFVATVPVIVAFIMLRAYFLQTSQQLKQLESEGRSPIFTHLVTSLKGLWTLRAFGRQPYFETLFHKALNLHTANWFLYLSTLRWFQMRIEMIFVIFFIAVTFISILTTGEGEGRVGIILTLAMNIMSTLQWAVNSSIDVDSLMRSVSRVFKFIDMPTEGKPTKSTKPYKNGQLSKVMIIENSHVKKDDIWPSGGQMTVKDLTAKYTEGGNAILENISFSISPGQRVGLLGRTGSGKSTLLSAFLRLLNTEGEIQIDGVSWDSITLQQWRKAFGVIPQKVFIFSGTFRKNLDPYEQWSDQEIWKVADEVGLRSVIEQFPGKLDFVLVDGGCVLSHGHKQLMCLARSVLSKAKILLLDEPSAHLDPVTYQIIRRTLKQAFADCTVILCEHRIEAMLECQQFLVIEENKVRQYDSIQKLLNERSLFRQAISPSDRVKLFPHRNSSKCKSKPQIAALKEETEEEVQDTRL

**Q.** For `CC1CN(c2ncccc2C(=O)NS(=O)(=O)c2cccc(N[C@H](C)C3CCCCC3)n2)C(C)(C)C1` (stereo partly drawn) [Compound 1996, N—[[6-[[(1R)-1-cyclohexylethyl]amino]-2-pyridyl]sulfonyl]-2-(2,2,4-trimethylpyrrolidin-1-yl)pyridine-3-carboxamide], which EC30 is on record?
**A.** < 3 µM

**Q.** How did the EC30 turn out when `CC1CN(c2ncccc2C(=O)NS(=O)(=O)c2cccc(OCCC(C)(C)C)n2)C(C)(C)C1` (stereo not drawn) [Compound 2025, N—[[6-(3,3-dimethylbutoxy)-2-pyridyl]sulfonyl]-2-(2,2,4-trimethylpyrrolidin-1-yl)pyridine-3-carboxamide] was run?
**A.** < 3 µM

**Q.** `C[C@@H]1CN(c2nc(-c3cc4ccccc4n3C(=O)OC(C)(C)C)ccc2C(=O)NS(=O)(=O)c2cccnc2N)C(C)(C)C1` [Compound 2657, tert-butyl 2-[5-[(2-amino-3-pyridyl)sulfonylcarbamoyl]-6-[(4S)-2,2,4-trimethylpyrrolidin-1-yl]-2-pyridyl]indole-1-carboxylate] was tested. Which EC30 did it give?
**A.** 3 to 10 µM

**Q.** With `C[C@@H]1CN(c2nc(-c3ccccc3O)ccc2C(=O)NS(=O)(=O)c2cccnc2N)C(C)(C)C1` [Compound 2257, N-[(2-amino-3-pyridyl)sulfonyl]-6-(2-hydroxyphenyl)-2-[(4S)-2,2,4-trimethylpyrrolidin-1-yl]pyridine-3-carboxamide] as the compound, how does the EC30 read?
**A.** < 3 µM

**Q.** With `CC1CN(c2ncccc2C(=O)NS(=O)(=O)c2cccc(OC3CCCC(C)(C)C3)n2)C(C)(C)C1` (stereo not drawn) [Compound 2038, N—[[6-(3,3-dimethylcyclohexoxy)-2-pyridyl]sulfonyl]-2-(2,2,4-trimethylpyrrolidin-1-yl)pyridine-3-carboxamide] as the compound, how does the EC30 read?
**A.** < 3 µM

**Q.** `Cc1ccc(-c2ccc(C(=O)NS(=O)(=O)N3CC[C@H](N)C3)c(N3C[C@@H](C)CC3(C)C)n2)cc1F` [Compound 2587, N-[(3S)-3-aminopyrrolidin-1-yl]sulfonyl-6-(3-fluoro-4-methyl-phenyl)-2-[(4S)-2,2,4-trimethylpyrrolidin-1-yl]pyridine-3-carboxamide] was tested. Which EC30 did it give?
**A.** 3 to 10 µM

**Q.** `CC1CN(c2ncccc2C(=O)NS(=O)(=O)c2cccc(NCCC(=O)OC(C)(C)C)n2)C(C)(C)C1` (stereo not drawn) [Compound 2495, tert-butyl 3-[[6-[[2-(2,2,4-trimethylpyrrolidin-1-yl)pyridine-3-carbonyl]sulfamoyl]-2-pyridyl]amino]propanoate] was tested. Which EC30 did it give?
**A.** < 3 µM

**Q.** With `CC1CN(c2ncccc2C(=O)NS(=O)(=O)c2cccc(OCC3CCOCC3)n2)C(C)(C)C1` (stereo not drawn) [Compound 2032, N—[[6-(tetrahydropyran-4-ylmethoxy)-2-pyridyl]sulfonyl]-2-(2,2,4-trimethylpyrrolidin-1-yl)pyridine-3-carboxamide] as the compound, how does the EC30 read?
**A.** 3 to 10 µM

**Q.** How did the EC30 turn out when `CC1CN(c2ncccc2C(=O)NS(=O)(=O)c2cccc(OCc3ccccc3Cl)n2)C(C)(C)C1` (stereo not drawn) [Compound 2273, N—[[6-[(2-chlorophenyl)methoxy]-2-pyridyl]sulfonyl]-2-(2,2,4-trimethylpyrrolidin-1-yl)pyridine-3-carboxamide] was run?
**A.** < 3 µM

**Q.** Which EC30 does the source give for `CC(C)COc1cc(F)cc(-c2nc(N3C[C@@H](C)CC3(C)C)c(C(=O)NS(=O)(=O)c3cccc(N)n3)cc2F)c1` [Compound 2473, N-[(6-amino-2-pyridyl)sulfonyl]-5-fluoro-6-(3-fluoro-5-isobutoxy-phenyl)-2-[(4S)-2,2,4-trimethylpyrrolidin-1-yl]pyridine-3-carboxamide] here?
**A.** < 3 µM

Same assay, conditions: Table 3; compounds of Table 1 as modulators of CFTR activity; protocol not stated

**Q.** How did the EC30 turn out when `CC(C)Oc1cncc(-c2ccc(C(=O)NS(=O)(=O)c3cccc(N)n3)c(N3[C@H](C)CC[C@@H]3C)n2)c1` [Compound 400, N-[(6-amino-2-pyridyl)sulfonyl]-2-[(2S,5R)-2,5-dimethylpyrrolidin-1-yl]-6-(5-isopropoxy-3-pyridyl)pyridine-3-carboxamide] was run?
**A.** ++ (“++” means between 3 uM and 10 uM)

**Q.** How did the EC30 turn out when `Cc1cc(C)c(Cn2nc(C(C)C)cc2C(=O)NS(=O)(=O)c2cccc(N)c2)c(C)c1` [Compound 566, N-(3-aminophenyl)sulfonyl-5-isopropyl-2-[(2,4,6-trimethylphenyl)methyl]pyrazole-3-carboxamide] was run?
**A.** + (“+” means greater than 10 uM)

**Q.** Which EC30 does the source give for `COC[C@@H]1CCCN1c1nc(-c2cc(F)cc(OCC(C)C)c2)ccc1C(=O)NS(=O)(=O)c1cccc(N)n1` [Compound 719, N-[(6-amino-2-pyridyl)sulfonyl]-6-(3-fluoro-5-isobutoxy-phenyl)-2-[(2S)-2-(methoxymethyl)pyrrolidin-1-yl]pyridine-3-carboxamide] here?
**A.** +++ (“+++” means <3 uM)

**Q.** How did the EC30 turn out when `CC(C)COc1cc(F)cc(-c2ccc(C(=O)NS(=O)(=O)c3cccc(N)n3)c(N3C(C)CC(c4ccccc4)C3C)n2)c1` (stereo not drawn) [Compound 711, N-[(6-amino-2-pyridyl)sulfonyl]-2-(2,5-dimethyl-3-phenyl-pyrrolidin-1-yl)-6-(3-fluoro-5-isobutoxy-phenyl)pyridine-3-carboxamide] was run?
**A.** +++ (“+++” means <3 uM)

**Q.** For `Cc1cc(C)c(Oc2nc3ccccc3cc2C(=O)NS(=O)(=O)c2cccc(N)c2)c(C)c1` [Compound 260, N-(3-aminophenyl)sulfonyl-2-(2,4,6-trimethylphenoxy)quinoline-3-carboxamide], which EC30 is on record?
**A.** ++ (“++” means between 3 uM and 10 uM)

**Q.** Which EC30 does the source give for `COc1cc2cc(C(=O)NS(=O)(=O)c3cccc(N)c3)n(Cc3c(C)cc(C)cc3C)c2cc1OC` [Compound 598, N-(3-aminophenyl)sulfonyl-5,6-dimethoxy-1-[(2,4,6-trimethylphenyl)methyl]indole-2-carboxamide] here?
**A.** ++ (“++” means between 3 uM and 10 uM)

**Q.** For `Cc1cc(C)c(Oc2nc(C(C)(C)C)ccc2C(=O)NS(=O)(=O)c2ccccc2C#N)c(C)c1` [Compound 78, 6-tert-butyl-N-(2-cyanophenyl)sulfonyl-2-(2,4,6-trimethylphenoxy)pyridine-3-carboxamide], which EC30 is on record?
**A.** +++ (“+++” means <3 uM)

**Q.** `Cc1cc(C)c(Oc2nc(-c3cnn(C)c3C)ccc2C(=O)NS(=O)(=O)c2cccc(N)n2)c(C)c1` [Compound 584, N-[(6-amino-2-pyridyl)sulfonyl]-6-(1,5-dimethylpyrazol-4-yl)-2-(2,4,6-trimethylphenoxy)pyridine-3-carboxamide] was tested. Which EC30 did it give?
**A.** ++ (“++” means between 3 uM and 10 uM)

**Q.** For `CC(C1CCCCC1)n1nc(C(C)(C)C)cc1C(=O)NS(=O)(=O)c1cccc(N)c1` (stereo not drawn) [Compound 287, N-(3-aminophenyl)sulfonyl-5-tert-butyl-2-(1-cyclohexylethyl)pyrazole-3-carboxamide], which EC30 is on record?
**A.** +++ (“+++” means <3 uM)

**Q.** How did the EC30 turn out when `Cc1cc(C)c(Oc2nc(C(C)(C)C)ccc2C(=O)N=S(N)(=O)c2cccc(N)n2)c(C)c1` (stereo not drawn) [Compound 515, N-[amino-(6-amino-2-pyridyl)-oxo-$1^6-sulfanylidene]-6-tert-butyl-2-(2,4,6-trimethylphenoxy)pyridine-3-carboxamide] was run?
**A.** +++ (“+++” means <3 uM)

**Q.** With `Cc1cc(C)c(CN2C(C(=O)NS(=O)(=O)c3ccc(C)c(N)c3)c3ccccc3C2(C)C)c(C)c1` (stereo not drawn) [Compound 448, N-(3-amino-4-methyl-phenyl)sulfonyl-3,3-dimethyl-2-[(2,4,6-trimethylphenyl)methyl]isoindoline-1-carboxamide] as the compound, how does the EC30 read?
**A.** +++ (“+++” means <3 uM)

**Q.** How did the EC30 turn out when `COc1cccnc1S(=O)(=O)NC(=O)c1cc(C(C)(C)C)nn1Cc1c(C)cc(C)cc1C` [Compound 44, 5-tert-butyl-N-[(3-methoxy-2-pyridyl)sulfonyl]-2-[(2,4,6-trimethylphenyl)methyl]pyrazole-3-carboxamide] was run?
**A.** ++ (“++” means between 3 uM and 10 uM)

**Q.** For `COc1ccc(C)c(-c2ccc(C(=O)NS(=O)(=O)c3cccc(N)n3)c(N3CC(C)CC3(C)C)n2)c1` (stereo not drawn) [Compound 470, N-[(6-amino-2-pyridyl)sulfonyl]-6-(5-methoxy-2-methyl-phenyl)-2-(2,2,4-trimethylpyrrolidin-1-yl)pyridine-3-carboxamide], which EC30 is on record?
**A.** +++ (“+++” means <3 uM)

**Q.** How did the EC30 turn out when `CCOc1ccccc1-c1cc(C(=O)NS(=O)(=O)c2ccccc2)n(Cc2c(C)cccc2C)n1` [Compound 152, N-(benzenesulfonyl)-2-[(2,6-dimethylphenyl)methyl]-5-(2-ethoxyphenyl)pyrazole-3-carboxamide] was run?
**A.** +++ (“+++” means <3 uM)

**Q.** How did the EC30 turn out when `COc1cc(C)cc(OC)c1-c1ccc(C(=O)NS(=O)(=O)c2cccc(N)n2)c(Oc2c(C)cc(C)cc2C)n1` [Compound 629, N-[(6-amino-2-pyridyl)sulfonyl]-6-(2,6-dimethoxy-4-methyl-phenyl)-2-(2,4,6-trimethylphenoxy)pyridine-3-carboxamide] was run?
**A.** +++ (“+++” means <3 uM)

**Q.** `Cc1cc(C)c(Cc2oc(C(C)(C)C)nc2C(=O)NS(=O)(=O)c2cccc(N)c2)c(C)c1` [Compound 360, N-(3-aminophenyl)sulfonyl-2-tert-butyl-5-[(2,4,6-trimethylphenyl)methyl]oxazole-4-carboxamide] was tested. Which EC30 did it give?
**A.** +++ (“+++” means <3 uM)

**Q.** Which EC30 does the source give for `Cc1cc(C)c(CN2CCc3ccccc3C2C(=O)NS(=O)(=O)c2cccc(N)c2)c(C)c1` (stereo not drawn) [Compound 309, N-(3-aminophenyl)sulfonyl-2-[(2,4,6-trimethylphenyl)methyl]-3,4-dihydro-1H-isoquinoline-1-carboxamide] here?
**A.** +++ (“+++” means <3 uM)

**Q.** How did the EC30 turn out when `Cc1cc(C)c(CN2c3ccccc3CCCC2C(=O)NS(=O)(=O)c2ccccc2)c(C)c1` (stereo not drawn) [Compound 604, N-(benzenesulfonyl)-1-[(2,4,6-trimethylphenyl)methyl]-2,3,4,5-tetrahydro-1-benzazepine-2-carboxamide] was run?
**A.** +++ (“+++” means <3 uM)

**Q.** With `Cc1cccc(C)c1Cn1nc(-c2cccc(CN3CCOCC3)c2)cc1C(=O)NS(=O)(=O)c1ccccc1` [Compound 302, N-(benzenesulfonyl)-2-[(2,6-dimethylphenyl)methyl]-5-[3-(morpholinomethyl)phenyl]pyrazole-3-carboxamide] as the compound, how does the EC30 read?
**A.** ++ (“++” means between 3 uM and 10 uM)

**Q.** For `COc1ccc(-c2ccc(C(=O)NS(=O)(=O)c3cccc(N)n3)c(Oc3c(C)cc(C)cc3C)n2)c(OC)n1` [Compound 754, N-[(6-amino-2-pyridyl)sulfonyl]-6-(2,6-dimethoxy-3-pyridyl)-2-(2,4,6-trimethylphenoxy)pyridine-3-carboxamide], which EC30 is on record?
**A.** +++ (“+++” means <3 uM)

Source: patent US10758534B2 (Vertex Pharmaceuticals Incorporated, priority 2014, dated 2020)
